Laboratory results taken from patent US20260216109A1, “TREATMENT OF SKIN DISORDERS WITH SHORT CHAIN FATTY ACIDS” (Temple University-Of The Commonwealth System of Higher …, priority 2023, published 2026).

Columns and labels:
MIP-3α = experiment: Multiplex (MSD V-PLEX) cytokine release, InflammaSkin: MIP-3α; format: cell-based, human; settings: Example 2; 1 μM Otezla systemic; compared to untreated InflammaSkin
Procedure: A total of 16 biopsies of 15 mm diameter were produced from a single donor. Two NativeSkin® models with 12/15 mm silicon rings were produced from the biopsies according to standard procedures in place, and cultured under cell culture conditions (37° C., 5% CO2, max. humidity) for 7 days with 2 mL of standard NativeSkin® medium renewed every day. Fourteen PSO-InflammaSkin® models with 12/15 mm silicon rings were produced by inducing in situ activation and Th17/Th1 polarization of skin resident T cells with a proprietary cocktail, and cultured under cell culture conditions (37° C., 5% CO2, max. humidity) for 7 days with 2 mL of PSO-InflammaSkin® culture medium renewed every day. […]
Human pro-inflammatory cytokines released in the supernatant were quantified using the V-PLEX Human IL-17A Kit (MesoScale Discovery, reference: K151RFD-1) and V-PLEX Human custom Pro-inflammatory. […]
Samples were diluted four times for plate 2 and two times for plate 1. Samples and standards were assessed in duplicate. Plates were read on MesoScale Discovery Quickpleax SQ 120 plate reader and values expressed in pg/mL.
A statistical analysis was performed. […] First, the distribution's normality of the two compared group was assessed. […] If the two distributions were normal, the homogeneity of variances was assessed using a Fisher test on the variances. […]

[1] = tested on: imiquimod (IMQ)-induced psoriasis model mice; experiment: Disease severity score, imiquimod (IMQ)-induced psoriasis model in mice; format: in vivo, mouse; settings: for disease severity score (psoriasis severity score): Example 12
Procedure: (§1) Topical application of IMQ, a TLR7/8 ligand and potent immune activator induced and exacerbated psoriasis in mice. The mouse IMQ-induced psoriasis (IMQ Ps) model was initiated by a repeated topical application of Aldara© cream (containing 5% IMQ) over 6 consecutive days. Female Balb/c mice (9 weeks of age at reception, ordered with 20 g, Charles River, Sulzfeld, Germany; n=10 mice/group, exception healthy controls n=4) received daily a topical application of 62.5 mg of commercially available IMQ cream (5% Aldara©) on the beforehand (day −1) shaved (~2 cm×3 cm), depilated (Pilka© cream) back skin, and 7 mg on the outer right ear skin for 6 consecutive days, translating in a daily dose of approximately 3.5 mg IMQ. Healthy control mice were included in the study and were treated with vehicle cream (Vaseline; Bombastus-Werke AG) only instead of IMQ. Additionally, an IMQ disease control group was also included.
Before starting treatment on the day of disease induction (day 0), mice were randomized based on body weight to the respective group. To evaluate the anti-inflammatory efficacy of the two test compounds in mouse IMQ psoriasis, mice were treated twice daily ([…] in sterile water; m/m/v) or with fixed dose of SCFA (in ddH2O) starting on day 0.
Disease Severity Score was evaluated on a daily base starting with the induction of psoriasis by IMQ application (day 0) until the end (day 6) of the study. The psoriasis severity on the back skin of the mice was evaluated by using a modified scoring system developed by van der Fits et al., based on the clinical PASI (psoriasis area and severity index) and takes skin erythema, scaling and skin thickening into account. Scoring was performed by the same lab technician throughout the experiment. Each parameter was scored independently on a scale from 0 to 3.
(§2) The added-up score (erythema plus scaling plus thickening), named disease severity score (scale 0-9), served then as marker for the severity of back skin inflammation. In addition, ear thickness of the right ear was determined daily by using an automatized caliper (Bayer AG, Germany).
The statistical analysis of the data was conducted by using the GraphPad PRISM software. Here, a one-way analysis of variance (ANOVA) and a pair-wise comparison to the IMQ disease control group (using the Dunnett's test) as a multiple comparison procedure was performed. Statistical significance was delineated by p value (*, p<0.05; **, p<0.01; ***, p<0.005; **** p<0.001).

[2] = tested on: imiquimod (IMQ)-induced psoriasis model mice; experiment: Ear skin thickness, IMQ-induced psoriasis model in mice; format: in vivo, mouse
Procedure: as §1
Before starting treatment on the day of disease induction (day 0), mice were randomized based on body weight to the respective group. […]
as §2
Disease Severity Score was evaluated on a daily base starting with the induction of psoriasis by IMQ application (day 0) until the end (day 6) of the study. The extent of ear thickness of the IMQ-treated right ear was determined daily by using an automatized caliper (Bayer AG, Germany) as described in Example 4.
Ear thickening, one of the disease severity score parameters, was evaluated in IMQ-treated mice (FIG. 60 and FIG. 61). The extent of ear thickness of the IMQ-treated right ear was determined daily by using an automatized caliper (Bayer AG, Germany) as described in Example 4.

Structure (SMILES): CCOc1cc([C@@H](CS(C)(=O)=O)N2C(=O)c3cccc(NC(C)=O)c3C2=O)ccc1OC [Otezla, Apremilast]
- increase of secretion of MIP-3a (MIP-3α): about 50%
- disease severity score (psoriasis severity), back skin ([1]; Example 4, oral gavage BID from day 0 to day 6, Apremilast 25 mg/kg BID (50 mg/kg/day), SCFA fixed dose (120 mg/kg/day Ca-propionate + 2,146 mg/kg/day Ca-/Mg-butyrate), vs IMQ control): significantly inhibited the psoriasis severity in IMQ-treated mice throughout the duration of the experiment
- disease severity score (psoriasis severity) ([1]; Example 5, Apremilast 10 mg/kg/day and 14 mg/kg/day (5 and 7 mg/kg BID), oral): inhibited the psoriasis severity in IMQ-treated mice within the first four days of the study, but anti-inflammatory effects were not maintained until the end of the study at day 6
- disease severity score (psoriasis severity score) ([1]; Apremilast 12 mg/kg BID oral, monotherapy): did not reach significance at day 4 and day 5
- disease severity score (psoriasis severity score) ([1]; Apremilast 25 mg/kg BID oral alone, or combined with fixed dose SCFA (60 mg/kg/day Ca-propionate + 1,100 mg/kg/day Ca-/Mg-butyrate)): reduced the psoriasis severity score in IMQ-treated mice at day 4 of the study (p<0.05), and these effects were maintained at the end of the study at day 6
- ear thickness ([2]; Example 7, Apremilast low dose (2.5 mg/kg BID), oral, alone): did not show any inhibitory influence on ear thickness
- ear thickness ([2]; Example 7, Apremilast mid and high dose (5 and 7 mg/kg BID), oral, alone): inhibited
- ear thickness ([2]; Example 12, day 6, Apremilast monotherapy, both doses (12 mg/kg and 25 mg/kg BID)): did not show any inhibitory influence on ear thickness at day 6
